Laboratory results taken from article PMC10480161, “Identification of potent and selective N-myristoyltransferase inhibitors of Plasmodium vivax liver stage hypnozoites and schizonts” (Nature Communications, 2023).
Values joined by “and” are separate entries in the source; they are usually repeats but may differ in a detail not shown here. Equal entries are not always repeated.

How the values were obtained:
[1] = tested on: primary human hepatocytes; experiment: Nuclear counts (DAPI) in P. vivax-infected primary hepatocytes as measure of toxicity; assay type: cell-based; details: two technical replicates
Description: Accordingly, we applied dose–response curves of all the tested NMTs on parasite isolates 2 and 3 over concentrations up to 20 µM (Fig. 5c, d, Source Data file). […] Nuclei were counted in each well using DAPI staining as a measure of toxicity (Supplementary Fig. 86, Supplementary Source data). We used the phosphatidylinositol 4-kinase inhibitor (PI4Ki), MMV390048, as a positive control for eliminating schizonts[37],[38].
Plasmodium vivax liver stage assays were performed as described previously. Cryopreserved primary human hepatocytes (Cat No. F00995-P) and hepatocyte culture medium (HCM) (InVitroGroTM CP Medium) were obtained from Bioreclamation IVT, Inc., (Baltimore, MD, USA). Briefly, we seeded 384-well plates with primary hepatocytes from a single donor lot at a density of 25,000 cells per well. We then infected the hepatocytes with 14,000 freshly hand-dissected sporozoites per well. Cells were exposed to the compounds at indicated concentrations from day 5 post-infection. We used Pi4K inhibitor MMV390048, at 20 µM, as a positive control to eliminate P. vivax liver schizonts. We then proceeded to feed cultures every day, replacing the compounds until day 8 post-infection. Cells were fixed with 4% PFA, permeabilized with 1% Triton X-100, blocked with 2% BSA, and stained with DAPI and PvUIS4 antibodies to detect schizonts and hypnozoites forms by confocal microscopy. […] DAPI was diluted 1:2000. The images were processed, analyzed and outlier cells were removed using IMARIS (Bitplane Inc.) image analysis software.
Supplementary Fig. 86. […] Nuclear […]
counts, normalized to DMSO controls, for NMT inhibitors across a dose response. Counts were ob-tained using DAPI staining from the P. vivax-infected wells quantified in Fig. 5d. Error bars represent the standard deviation of two technical replicates.
(1 picture or pasted object on this page, not shown here)

P. falciparum NF54 = experiment: P. falciparum blood stage assay (SYBR Green); assay type: cell-based, Plasmodium falciparum; details: 72 h; for P. falciparum blood-stage development (parasite DNA level fluorescence): untreated = 129; for IC50: ring-stage parasites, relative IC50
Description: To assess whether any of the PvNMTis developed here could qualify as TCP-1 candidates, we assessed the effect of each compound on blood-stage P. falciparum parasites, as there is currently no well-established in vitro platform for screening P. vivax blood-stage parasites. Synchronized P. falciparum NF54 ring-stage parasites were treated for 72 h with each compound at various concentrations, ranging from 0.625 µM to 10 µM, and parasite DNA replication was measured using a fluorescent DNA binding dye (SYBR Green).
Sorbitol-synchronized P. falciparum NF54 ring-stage parasites were cultured at a parasitemia of 0.5% and hematocrit of 1.5% in a 96-well microtiter plate. Parasites were treated with each NMT inhibitor compound at 0.625, 1.25, 2.5, 5, or 10 µM for 72 h. Direct lysis of the blood cells to release the parasite DNA was performed by adding 100 μl of LBS buffer containing SYBR green I DNA binding dye to each well. […] ICEstimator regression analysis (http://www.antimalarial-icestimator.net/) was used to obtain relative IC50 values for each compound.

[2] = HepG2 cytotoxicity assay (Live/Dead staining); details: human, HepG2 cells
Method in brief: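 Live/dead fluorescence microscopy (calcein-AM and ethidium homodimer, 1 µM each) read at 72 h post-treatment. Compounds dosed at 1 to 20 µM on HepG2 cells, with washing and fresh compound every 24 h.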

Structure (SMILES)	Nucleus counts per well ([1]; 1 uM)	Nucleus counts per well ([1]; 2.5uM)	Nucleus counts per well ([1]; 5 uM)	Nucleus counts per well ([1]; 10uM)	Nucleus counts per well ([1]; 20uM, P. vivax-infected wells)	P. falciparum blood-stage development (parasite DNA level fluorescence) (P. falciparum NF54; 0.625 uM)	P. falciparum blood-stage development (parasite DNA level fluorescence) (P. falciparum NF54; 1.25 uM)	P. falciparum blood-stage development (parasite DNA level fluorescence) (P. falciparum NF54; 2.5 uM)	P. falciparum blood-stage development (parasite DNA level fluorescence) (P. falciparum NF54; 5 uM)	P. falciparum blood-stage development (parasite DNA level fluorescence) (P. falciparum NF54; 10 uM)	IC50 (P. falciparum NF54; Plasmodium falciparum, NF54) [nM]	IC50 at 48 h [2] [nM]	IC50 (P. falciparum NF54) [nM]
Cc1nn(C)c(C)c1CCOc1cccnc1-c1ccnc(N2CCNCC2)c1 [Compound 12a]	15610 per well and 14860 per well	15510 per well and 15490 per well	15510 per well and 14150 per well	13830 per well and 15570 per well	12100 per well and 13960 per well	128.4	125.3	116.9	107.7	96.27	810	> 20000	–
Cc1nn(C)c(C)c1CCOc1cccnc1-c1cccc(N2CCNCC2)c1 [Compound 12b]	16000 per well and 15090 per well	15680 per well and 16210 per well	15950 per well and 14130 per well	15200 per well and 15960 per well	12570 per well and 13810 per well	118	125.4	119.5	108.7	105.8	470	> 20000	–
Cc1nn(C)c(C)c1CCOc1ccccc1-c1cccc(N2CCNCC2)c1 [Compound 12d]	15900 per well and 16970 per well	14920 per well and 16520 per well	15990 per well and 14720 per well	15680 per well and 15000 per well	12690 per well and 13950 per well	123.5	124.2	118.5	101.9	92.65	800	> 20000	–
Cc1nn(C)c(C)c1CCOc1cc(F)ccc1-c1cccc(N2CCNCC2)c1 [Compound 12f]	15280 per well and 15770 per well	15290 per well and 15210 per well	15170 per well and 14310 per well	14300 per well and 15260 per well	13150 per well and 16410 per well	118.6	121.1	112.3	99.32	89.25	610	> 20000	–
c1cncc(CCOc2cccnc2-c2cccc(N3CCNCC3)c2)c1 [Compound 12g]	14940 per well and 14730 per well	14740 per well and 14990 per well	14960 per well and 13600 per well	13740 per well and 14770 per well	11770 per well and 13000 per well	115	117.7	114.7	99.89	87.22	600	> 20000	–
c1cncc(CCOc2ccccc2-c2ccnc(N3CCNCC3)c2)c1 [Compound 12j]	16280 per well and 14580 per well	10950 per well and 12190 per well	11170 per well and 12350 per well	12430 per well and 11110 per well	10860 per well and 12840 per well	106.8	108.9	108.6	101.9	74.22	1250	> 20000	–
Fc1ccc(-c2ccnc(N3CCNCC3)c2)c(OCCc2cccnc2)c1 [Compound 12l]	15910 per well and 14650 per well	13010 per well and 13310 per well	13030 per well and 13070 per well	13130 per well and 13070 per well	11440 per well and 13460 per well	110.1	110.9	110.4	99.67	86.75	370	> 20000	–
Cc1n[nH]c(C)c1CCOc1cc(F)ccc1-c1ccnc(N2CCNCC2)c1 [Compound 12q]	14830 per well and 14410 per well	12630 per well and 14350 per well	13780 per well and 14410 per well	15080 per well and 12510 per well	12010 per well and 14890 per well	114.1	119.1	116.1	98.36	97.95	–	–	380
Cc1nn(C)c(C)c1CCOc1ccccc1-c1cccc(OCCN(C)C)c1 [Compound 26b]	14910 per well and 16840 per well	13670 per well and 14610 per well	13920 per well and 13020 per well	12600 per well and 13580 per well	11600 per well and 12490 per well	123.3	124.2	115.6	103.2	94.32	710	> 20000	–
Cc1nn(C)c(C)c1CCOc1ccc2ccccc2c1-c1ccnc(N2CCNCC2)c1 [Compound 30a]	15050 per well and 16480 per well	16520 per well and 15260 per well	14210 per well and 14260 per well	14230 per well and 14010 per well	13060 per well and 13510 per well	115.4	121.5	115.2	95.74	95.74	–	–	440
